According to patent US20230069749A1, “USE OF POZIOTINIB FOR THE TREATMENT OF CANCERS WITH NRG1 FUSIONS” (Board of Regents, The University of Texas System, priority 2020, published 2023):

Test system: NRG1-DOC4 fusion breast cancer cell line, MDA175-VII
Assay: Cell viability of MDA175-VII cells by Cell Titer Glo assay
Type: cell-based
Conditions: 72 hours; for IC50 values: HER2 targeting antibody alone
Protocol: The cell viability of NRG1-DOC4 fusion breast cancer cell line, MDA175-VII, was tested with treatment of poziotinib with and without antibodies and antibody drug conjugates (ADCs) targeting HER2 and HER2/HER3 dimerization. Cell viability was determined by the Cell Titer Glo assay.

Molecule | IC50 (poziotinib alone) | IC50 values
C=CC(=O)N1CCC(Oc2cc3c(Nc4ccc(Cl)c(Cl)c4F)ncnc3cc2OC)CC1 [poziotinib, 1-[4-[4-(3,4-dichloro-2-fluoroanilino)-7-methoxyquinazolin-6-yl]oxypiperidin-1-yl]prop-2-en-1-one] | 0.287 nM | 
T-DM1 |  | 634.5 ng/mL
pertuzumab: recombinant, humanized monoclonal antibody that inhibits dimerization of HER2 |  | 53.7 ng/mL
